Columns and labels:
[1] = test system: patients with advanced solid tumors; settings: treatment-related, worst grade per patient, all cycles, N = 67
[2] = Plasma pharmacokinetics in patients; format: in vivo, human; settings: for AUC(0-inf) / Cmax / Tmax / half-life / Vd/F: human, plasma, oral; for Vd/F: 160 mg/m2, Vd/F
[3] = day 1, 160 mg/m^2, n=8, mean ± SD
[4] = day 28, 160 mg/m^2, n=5, mean ± SD

With Cc1cc(Nc2cc(N3CCN(C)CC3)nc(/C=C/c3ccccc3)n2)n[nH]1 [ENMD-2076] as the compound, how does the “Glossodynia, any grade, No. of patients” value [1] read?
Its value is 11.

What about the “Glossodynia, grade 3, No. of patients” value [1] of the same compound?
Its value is 0.

And the “Glossodynia, grade 4, No. of patients” value [1]?
Its value is 0.

What about the “Hypertension, any grade, No. of patients” value [1] of the same compound?
The value was 37.

And the “Hypertension, grade 3, No. of patients” value [1]?
The value was 12.

What about the “Hypertension, grade 4” value [1] of the same compound?
Its value is 3%.

And the “Hypertension, grade 4, No. of patients” value [1]?
The value was 2.

And the “Mucositis, any grade” value [1]?
Its value is 15%.

And the “Mucositis, any grade, No. of patients” value [1]?
The value was 10.

What about the “Mucositis, grade 3, No. of patients” value [1] of the same compound?
Its value is 0.

And the “Mucositis, grade 4, No. of patients” value [1]?
The value was 0.

And the “Nausea/vomiting, any grade, No. of patients” value [1]?
The value was 26.

And the “Nausea/vomiting, grade 3, No. of patients” value [1]?
Its value is 0.

What about the “Nausea/vomiting, grade 4, No. of patients” value [1] of the same compound?
The value was 0.

What about the “Patients reporting related adverse events, grade 3” value [1] of the same compound?
The value was 28%.

And the “Patients reporting related adverse events, grade 3, No. of patients” value [1]?
The value was 19.

What about the “Patients reporting related adverse events, grade 4” value [1] of the same compound?
The value was 9%.

What about the “Patients reporting related adverse events, grade 4, No. of patients” value [1] of the same compound?
The value was 6.

And the CL/F ([2]; day 1, 60 mg/m^2, n=6, mean ± SD)?
Its CL/F is 37.9 ± 19.3 L/h.

And the CL/F ([2]; day 1, 80 mg/m^2, n=4, mean ± SD)?
The CL/F was 45.9 ± 13.0 L/h.

And the CL/F ([2]; day 1, 120 mg/m^2, n=3, mean ± SD)?
The CL/F was 64.3 ± 16.9 L/h.

And the CL/F [2, 3]?
Its CL/F is 52.9 ± 18.4 L/h.

What about the CL/F ([2]; day 1, 200 mg/m^2, n=5, mean ± SD) of the same compound?
The CL/F was 41.5 ± 13.3 L/h.

What about the CL/F ([2]; day 1, 350 mg/m^2, n=2, mean ± SD) of the same compound?
The CL/F was 55.2 ± 12.9 L/h.

What about the CL/F ([2]; day 28, 60 mg/m^2, n=6, mean ± SD) of the same compound?
Its CL/F is 10.4 ± 7.9 L/h.

What about the CL/F ([2]; day 28, 80 mg/m^2, n=3, mean ± SD) of the same compound?
The CL/F was 10.8 ± 3.3 L/h.

And the CL/F ([2]; day 28, 120 mg/m^2, n=3, mean ± SD)?
Its CL/F is 13.0 ± 1.4 L/h.

What about the CL/F [2, 4] of the same compound?
Its CL/F is 9.1 ± 2.9 L/h.

And the CL/F ([2]; day 28, 200 mg/m^2, n=4, mean ± SD)?
Its CL/F is 14.0 ± 4.7 L/h.

What about the AUC(0-inf) ([2]; 60 mg/m2, AUC(0-inf), day 1, 60 mg/m^2, n=6, mean ± SD) of the same compound?
Its AUC(0-inf) is 3160 ± 1340 ng·h/mL.

What about the AUC(0-inf) ([2]; 60 mg/m2, AUC(0-inf), day 28, 60 mg/m^2, n=6, mean ± SD) of the same compound?
Its AUC(0-inf) is 15300 ± 8910 ng·h/mL.

And the Cmax ([2]; 60 mg/m2, Cmax, day 1, 60 mg/m^2, n=6, mean ± SD)?
The Cmax was 64 ± 23 ng/mL.

And the Cmax ([2]; 60 mg/m2, Cmax, day 28, 60 mg/m^2, n=6, mean ± SD)?
The Cmax was 218 ± 95 ng/mL.

And the Tmax ([2]; 60 mg/m2, Tmax, day 1, 60 mg/m^2, n=6, mean ± SD)?
The Tmax was 7.8 ± 7.8 h.

And the Tmax ([2]; 60 mg/m2, Tmax, day 28, 60 mg/m^2, n=6, mean ± SD)?
The Tmax was 4.7 ± 3 h.

And the half-life ([2]; 60 mg/m2, t1/2, day 1, 60 mg/m^2, n=6, mean ± SD)?
Its half-life is 36.4 ± 19.3 h.

What about the half-life ([2]; 60 mg/m2, t1/2, day 28, 60 mg/m^2, n=6, mean ± SD) of the same compound?
The half-life was 53.1 ± 20.4 h.

What about the AUC(0-inf) ([2]; 80 mg/m2, AUC(0-inf), day 1, 80 mg/m^2, n=4, mean ± SD) of the same compound?
Its AUC(0-inf) is 3850 ± 1600 ng·h/mL.

What about the AUC(0-inf) ([2]; 80 mg/m2, AUC(0-inf), day 28, 80 mg/m^2, n=3, mean ± SD) of the same compound?
Its AUC(0-inf) is 14700 ± 3780 ng·h/mL.

What about the Cmax ([2]; 80 mg/m2, Cmax, day 1, 80 mg/m^2, n=4, mean ± SD) of the same compound?
Its Cmax is 101 ± 59 ng/mL.

And the Cmax ([2]; 80 mg/m2, Cmax, day 28, 80 mg/m^2, n=3, mean ± SD)?
The Cmax was 233 ± 76 ng/mL.

And the Tmax ([2]; 80 mg/m2, Tmax, day 1, 80 mg/m^2, n=4, mean ± SD)?
The Tmax was 4 ± 1.6 h.

What about the Tmax ([2]; 80 mg/m2, Tmax, day 28, 80 mg/m^2, n=3, mean ± SD) of the same compound?
The Tmax was 3.4 ± 1.2 h.

What about the half-life ([2]; 80 mg/m2, t1/2, day 1, 80 mg/m^2, n=4, mean ± SD) of the same compound?
Its half-life is 31.8 ± 7.6 h.

What about the half-life ([2]; 80 mg/m2, t1/2, day 28, 80 mg/m^2, n=3, mean ± SD) of the same compound?
The half-life was 51 ± 18.7 h.

What about the AUC(0-inf) ([2]; 120 mg/m2, AUC(0-inf), day 1, 120 mg/m^2, n=3, mean ± SD) of the same compound?
Its AUC(0-inf) is 3590 ± 1260 ng·h/mL.

And the AUC(0-inf) ([2]; 120 mg/m2, AUC(0-inf), day 28, 120 mg/m^2, n=3, mean ± SD)?
Its AUC(0-inf) is 16700 ± 1120 ng·h/mL.

What about the Cmax ([2]; 120 mg/m2, Cmax, day 1, 120 mg/m^2, n=3, mean ± SD) of the same compound?
The Cmax was 93 ± 14 ng/mL.

What about the Cmax ([2]; 120 mg/m2, Cmax, day 28, 120 mg/m^2, n=3, mean ± SD) of the same compound?
The Cmax was 314 ± 73 ng/mL.

And the Tmax ([2]; 120 mg/m2, Tmax, day 1, 120 mg/m^2, n=3, mean ± SD)?
Its Tmax is 6 ± 3.5 h.

What about the Tmax ([2]; 120 mg/m2, Tmax, day 28, 120 mg/m^2, n=3, mean ± SD) of the same compound?
Its Tmax is 2.7 ± 3.2 h.

What about the half-life ([2]; 120 mg/m2, t1/2, day 1, 120 mg/m^2, n=3, mean ± SD) of the same compound?
Its half-life is 27.3 ± 5.8 h.

What about the half-life ([2]; 120 mg/m2, t1/2, day 28, 120 mg/m^2, n=3, mean ± SD) of the same compound?
Its half-life is 44.9 ± 8.6 h.

And the AUC(0-inf) ([2]; 160 mg/m2, AUC(0-inf), day 1, 160 mg/m^2, n=8, mean ± SD)?
The AUC(0-inf) was 5940 ± 2410 ng·h/mL.

And the AUC(0-inf) ([2]; 160 mg/m2, AUC(0-inf), day 28, 160 mg/m^2, n=5, mean ± SD)?
Its AUC(0-inf) is 34600 ± 16500 ng·h/mL.

What about the Cmax ([2]; 160 mg/m2, Cmax, day 1, 160 mg/m^2, n=8, mean ± SD) of the same compound?
The Cmax was 157 ± 52 ng/mL.

What about the Cmax ([2]; 160 mg/m2, Cmax, day 28, 160 mg/m^2, n=5, mean ± SD) of the same compound?
Its Cmax is 558 ± 222 ng/mL.

What about the Tmax ([2]; 160 mg/m2, Tmax, day 1, 160 mg/m^2, n=8, mean ± SD) of the same compound?
The Tmax was 3.5 ± 1.4 h.

And the Tmax ([2]; 160 mg/m2, Tmax, day 28, 160 mg/m^2, n=5, mean ± SD)?
Its Tmax is 4.4 ± 2.1 h.

And the Vd/F [2, 3]?
The Vd/F was 2020 ± 388 L.

And the Vd/F [2, 4]?
The Vd/F was 600 ± 229 L.

And the half-life ([2]; 160 mg/m2, t1/2, day 1, 160 mg/m^2, n=8, mean ± SD)?
The half-life was 28.6 ± 8.4 h.

And the half-life ([2]; 160 mg/m2, t1/2, day 28, 160 mg/m^2, n=5, mean ± SD)?
The half-life was 46.1 ± 9.5 h.

And the AUC(0-inf) ([2]; 200 mg/m2, AUC(0-inf), day 1, 200 mg/m^2, n=5, mean ± SD)?
Its AUC(0-inf) is 10600 ± 4900 ng·h/mL.

And the AUC(0-inf) ([2]; 200 mg/m2, AUC(0-inf), day 28, 200 mg/m^2, n=4, mean ± SD)?
The AUC(0-inf) was 34500 ± 18300 ng·h/mL.

And the Cmax ([2]; 200 mg/m2, Cmax, day 1, 200 mg/m^2, n=5, mean ± SD)?
Its Cmax is 229 ± 65 ng/mL.

And the Cmax ([2]; 200 mg/m2, Cmax, day 28, 200 mg/m^2, n=4, mean ± SD)?
The Cmax was 557 ± 191 ng/mL.

And the Tmax ([2]; 200 mg/m2, Tmax, day 1, 200 mg/m^2, n=5, mean ± SD)?
The Tmax was 4 ± 2.4 h.

And the Tmax ([2]; 200 mg/m2, Tmax, day 28, 200 mg/m^2, n=4, mean ± SD)?
Its Tmax is 4.5 ± 2.5 h.

And the half-life ([2]; 200 mg/m2, t1/2, day 1, 200 mg/m^2, n=5, mean ± SD)?
Its half-life is 38.3 ± 10 h.

And the half-life ([2]; 200 mg/m2, t1/2, day 28, 200 mg/m^2, n=4, mean ± SD)?
Its half-life is 47.6 ± 12.7 h.

What about the AUC(0-inf) ([2]; 350 mg/m2, AUC(0-inf), day 1, 350 mg/m^2, n=2, mean ± SD) of the same compound?
Its AUC(0-inf) is 12200 ± 5100 ng·h/mL.

What about the Cmax ([2]; 350 mg/m2, Cmax, day 1, 350 mg/m^2, n=2, mean ± SD) of the same compound?
The Cmax was 300 ± 18 ng/mL.

What about the Tmax ([2]; 350 mg/m2, Tmax, day 1, 350 mg/m^2, n=2, mean ± SD) of the same compound?
Its Tmax is 3 ± 1.4 h.

What about the half-life ([2]; 350 mg/m2, t1/2, day 1, 350 mg/m^2, n=2, mean ± SD) of the same compound?
Its half-life is 31.1 ± 14.4 h.

What about the half-life ([2]; Mean terminal phase elimination half-life (t1/2), range, after a single dose) of the same compound?
Its half-life is 27.3 to 38.3 h.

And the Tmax ([2]; Tmax, range over all dose levels, day 28)?
The Tmax was 2.7 to 4.7 h.
